Patent US20060198832A1, “Peptide drugs for chronic lymphocytic leukemia (CLL) and other cancers” (priority 2004, published 2006)
Bridges are numbered along the chain shown (N, C = ends). Roman numbers before positions name the chains, in order. Where no end group is shown, it is not given here.

What was measured:
GST-Bcl2(1-205) = molecular target: T1, GST-Bcl2(1-205) (Homo sapiens, UniProt P10415); test: competition ELISA for binding of BAD peptides to Bcl-2; conditions: FIG. 1
T1 construct: 50 ng GST-Bcl2(1-205; Santa Cruz Biotechnology; Santa Cruz, Calif.); purchased Santa Cruz Biotechnology
T1 sequence (P10415 1-205): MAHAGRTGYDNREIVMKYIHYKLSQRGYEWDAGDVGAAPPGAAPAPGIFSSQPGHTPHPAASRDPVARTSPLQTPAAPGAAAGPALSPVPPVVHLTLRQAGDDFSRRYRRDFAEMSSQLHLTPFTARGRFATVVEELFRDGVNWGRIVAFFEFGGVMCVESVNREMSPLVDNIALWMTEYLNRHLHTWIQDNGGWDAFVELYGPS
Protocol: To determine binding affinity to Bcl-2, competition ELISA assays were performed essentially as described in Cabezas et al., supra, 2001, with the following components. Briefly, acetyl-Cys(biotin-BMCC)-Ahx-Bad peptide (50 ng peptide/50 μl ELISA buffer) was adsorbed to 96-well neutraAvidin coated microtiter plates. Competition peptides were subsequently mixed with 50 ng GST-Bcl2(1-205; Santa Cruz Biotechnology; Santa Cruz, Calif.) in 50 μl ELISA buffer per titer well and incubated for one hour at 37° C. Wells were washed and treated with 50 μl of a 1/4000 dilution of anti-GST Mab 7E5 (from ascites fluid provided by Shinichi Kitada) in ELISA buffer for one hour at 37° C. Quantification of peptide-bound GST-Bcl2/Mab7E5 complex was carried out with alkaline-phosphatase-conjugated goat […] and p-nitrophenylphosphate substrate as described in Cabezas et al., supra, 2001.

[1] = test system: chronic lymphocytic leukemia (CLL) cells; test: viability/apoptosis of CLL cells electroporated with peptides (Annexin V-FITC/PI flow cytometry); assay type: cell-based, human
Text: Peripheral blood mononuclear cells (PBMC) from patients with chronic lymphocytic leukemia (CLL) were obtained from the CLL Research Consortium (CRC) tissue bank. Briefly, heparinized peripheral blood was obtained from patients diagnosed with B-CLL according to standard criteria (Chenson et al., Blood 87:4990-4997 (1996)). Lymphocytes were isolated by Ficoll density-gradient centrifugation and verified by immunofluorescence flow cytometry to be composed of greater than 95% CD5/CD19/CD23 triple positive B cells. […] CLL cells were electroporated with a dimethyl sulfoxide (DMSO) control or peptides essentially as described in […] et al., J. Immunol. Methods 275:41-56 (2003), and […] et al., Cancer Res. 63:1242-1248 (2003). For evaluation of apoptosis, at least 5×10^5 cells were recovered by centrifugation and double-stained with Annexin V-FITC, an early marker of apoptosis, and propidium iodide (PI), a nucleic acid-binding vital dye, followed by flow-cytometric analysis using the FL-1 and FL-3 channels of a Becton Dickinson flow cytometer (FACSort; San Jose, Calif.).

697-neo cells = test: cell viability assay in 697-neo cells; assay type: cell-based; conditions: low Bcl-2, FIG. 6
Protocol: (§1) The peptides were tested in cell viability assays essentially as described above in Examples I and II. Experiments were carried out in 697-neo and 697-Bcl-2 cells. 697 cells are from a cell line of preB leukemic cells. 697-Bcl-2 cells have been engineered to express high levels of Bcl-2. AML-349 and AML-728 are myeloblasts (verified by FACS analysis via CD34-positivity) that were isolated from respective patients with acute myelogenous leukemia (AML).

697-Bcl-2 cells = test: cell viability assay in 697-Bcl-2 cells; assay type: cell-based; conditions: 697-Bcl2 cells with higher levels of Bcl-2, FIG. 6 and 7
Protocol: as §1

[2] = test system: acute myelogenous leukemia (AML) cells; test: cell viability/apoptosis in patient AML cells; assay type: cell-based, human
Protocol: as §1

Bcl-2 family Bcl-2/x1 = Bcl-2 family Bcl-2/x1 (Homo sapiens, UniProt P10415); test: binding of penetratin-linked peptides to Bcl-2 (method not described)
Chain of Bcl-2 family Bcl-2/x1 (P10415 1-205): as above

Substance | binding affinity for Bcl-2 compared to wild type BAD peptide (GST-Bcl2(1-205)) | cell viability (Induction of Apoptosis in CLL Cells), patient sample JCB 178 ([1]; CLL patient sample JCB 178, peptide electroporated) | cell viability (Induction of Apoptosis in CLL Cells), patient sample MA G15 ([1]; CLL patient sample MA G15, peptide electroporated) | cell viability (Induction of Apoptosis in CLL Cells), patient sample TJK 328 ([1]; CLL patient sample TJK 328, peptide electroporated) | cell viability (Induction of Apoptosis in CLL Cells), patient sample TJK 340 #1 ([1]; CLL patient sample TJK 340 #1, peptide electroporated) | cell viability (Induction of Apoptosis in CLL Cells), patient sample TJK 340 #2 ([1]; CLL patient sample TJK 340 #2, peptide electroporated) | cell viability (Induction of Apoptosis in CLL Cells), patient sample TJK 375 ([1]; CLL patient sample TJK 375, peptide electroporated) | cell viability (Induction of Apoptosis in CLL Cells), Av. ([1]; average of the five preceding patient sample columns, peptide electroporated) | cell viability of CLL cells ([1]; electroporated peptide, FIG. 2) | cell viability in all the patient CLL samples ([1]; electroporated peptide, summary of Table 4) | activity in reducing cell viability (697-neo cells) | amount of peptide needed to kill cells (697-Bcl-2 cells) | induction of apoptosis / killing ([2]; AML cells of patient AML-349, FIG. 9) | induction of apoptosis ([2]; AML cells of patient AML-728, FIG. 8) | binding to Bcl-2 (Bcl-2 family Bcl-2/x1)
NLWAAQRYGRELRRMADEFVDAFKK [SEQ ID NO: 2] | significantly higher binding affinity for Bcl-2 than the wild type BAD peptide | 12% | 2% | 10% | 12% | 12% | 22% | 14% | significantly reduced | dramatically reduced |  |  |  |  | 
acetyl-NLWAAQRYGRELRRMADEFVDAFKKC-CRQIKIWFQNRRMKWKK-amide [2335] (peptide 1 Ac-NLWAAQRYGRELRRMADEFVDAFKKC; peptide 2 CRQIKIWFQNRRMKWKK-NH2; disulfide I:26-II:1) [compound 2335, Bad 2Ser/Ala peptide disulfide linked to penetratin-1] |  |  |  |  |  |  |  |  |  |  | more active in 697-neo cells with low Bcl-2 than a 2336 control peptide | it takes more 2335 to kill 697 cells with higher levels of Bcl-2 | induced apoptosis | induced apoptosis | binds Bcl-2
